Results reported in PMC11050599, “Novel Tetracyclic Azaphenothiazines with the Quinoline Ring as New Anticancer and Antibacterial Derivatives of Chlorpromazine” (International Journal of Molecular Sciences, 2024).

Assays:
Type in all cases: cell-based, human
A549 (lung cancer) = experiment: MTT assay, A549 cells
Method in brief: (§1)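 After a 72 h incubation of 1 × 10^4 cells per well with compound, absorbance from MTT reduction was converted to percent of the medium-only control.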

[1] = tested on: MDA-MB-231 (breast cancer); experiment: MTT assay, MDA-MB-231 cells
Method in brief: as §1

[2] = tested on: MiaPaCa-2 (pancreas cancer); experiment: MTT assay, MiaPaCa-2 cells
Method in brief: as §1

PC3 (prostate cancer) = experiment: MTT assay, PC3 cells
Method in brief: as §1

HCT116 (colon cancer) = experiment: MTT assay, HCT116 cells
Method in brief: as §1

HCT116 cells = experiment: Cell cycle analysis by flow cytometry, HCT116; conditions: IC50, 24 h, compared to the control
Method in brief: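 Cells seeded at 1 × 10^5/well, adhered 24 h; attached and detached cells pooled, fixed overnight in 70% cold ethanol. Staining with RNase and propidium iodide (30 min, 37 °C, dark) preceded flow cytometry of sub-G1, G0/G1, S and G2/M fractions, in quadruplicate.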

[3] = SI = IC50 for normal cell line (HaCaT)/IC50 cancer cell line

CN1CCCCC1CCN1c2cc(Cl)ccc2Sc2cc3ccccc3nc21 (centres unmarked) [Compound 11, 8-Chloro-6-(2-(1-methylpiperidin-2-yl)ethyl)-quino[3,2-b]benzo[1,4]thiazine]
IC50 (A549 (lung cancer); Homo sapiens, A549, MTT, 72 h, mean SD, read-out: IC50 A549): 16 ± 4.2 µM | SI A549 (A549 (lung cancer); [3]): 1 | IC50 ([1]; Homo sapiens, MDA-MB-231, MTT, 72 h, MDA-MB231, read-out: IC50 MDA): 16.7 ± 1.1 µM | SI MDA [1, 3]: 0.9 | IC50 ([2]; Homo sapiens, MIA PaCa-2, MTT, 72 h, read-out: IC50 MiaPaCa-2): 24.3 ± 3.5 µM | SI MiaPaCa-2 [2, 3]: 0.5 | IC50 (PC3 (prostate cancer); Homo sapiens, PC-3, MTT, 72 h, read-out: IC50 PC3): 16.7 ± 1.8 µM | SI PC3 (PC3 (prostate cancer); [3]): 0.7 | IC50 (HCT116 (colon cancer); Homo sapiens, HCT-116, MTT, 72 h, read-out: IC50 HCT116): 7.7 ± 1.2 µM | SI HCT116 (HCT116 (colon cancer); [3]): 1.6 | increase in the cell amount at the sub-G1 phase, HCT116 (HCT116 cells): 2 fold
